Experiment [1] addresses T1, wt human JAK1, catalytic site (Homo sapiens, UniProt P23458).
T1 construct: wt human JAK1, catalytic site; purchased ThermoFisher
Description: HTRF KinEASE assay, JAK1. Type of experiment: biochemical. The note with it: 2.5 μM ATP; read-out: IC50, Activity Toward JAK1. On the procedure:
(§1) Basic protocol for HTRF KinEASE assay (Cisbio/FRA) inhibitor studies involved two steps: • Enzymatic step: Addition of 4 μL of test compound in corresponding DMSO dilutions, 4 μL of kinase/substrate mixture, 2 μL of ATP into 384 well small volume plates. Incubation for at least 30 minutes at room temperature. • Detection step: Addition of 5 μL antibody and 5 μL streptavidin-XL665, read plate after 60 minutes. Data analysis of emission ratios according KinEASE assay protocol.
(§2) Kinase and assay components were adjusted to final concentrations according to kit protocol. For TYK2: 2 nM wt human TYK2, catalytic site (SignalChem/CAN), 1 μM HTRF KinEASE-TK Substrate-biotin, 1 μM ATP in 1× Kinase Buffer. […] For JAK2: 1 nM wt human JAK2, catalytic site (SignalChem/CAN), 1 μM HTRF KinEASE-TK Substrate-biotin, 100 μM ATP in 1× Kinase Buffer.
as §2
Background: Time-resolved FRET reads energy transfer from a long-lived donor to a nearby acceptor.

The target of experiment [2] is T2, wt human TYK2, catalytic site (Homo sapiens, UniProt P29597).
T2 construct: wt human TYK2, catalytic site; purchased SignalChem
T2 sequence (P29597 897-1176 limits assumed): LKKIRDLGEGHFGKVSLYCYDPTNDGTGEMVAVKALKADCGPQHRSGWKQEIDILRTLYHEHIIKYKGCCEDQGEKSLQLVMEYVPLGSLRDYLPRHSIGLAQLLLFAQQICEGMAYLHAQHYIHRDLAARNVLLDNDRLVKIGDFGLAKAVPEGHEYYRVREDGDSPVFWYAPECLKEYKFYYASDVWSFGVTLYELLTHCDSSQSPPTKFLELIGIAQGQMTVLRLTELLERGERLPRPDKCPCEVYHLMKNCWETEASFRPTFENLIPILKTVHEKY
Description: HTRF KinEASE assay, TYK2. Format: biochemical. As to conditions: 1 μM ATP; read-out: IC50, Activity Toward TYK2. On the procedure:
as §1
(§3) Kinase and assay components were adjusted to final concentrations according to kit protocol. For TYK2: 2 nM wt human TYK2, catalytic site (SignalChem/CAN), 1 μM HTRF KinEASE-TK Substrate-biotin, 1 μM ATP in 1× Kinase Buffer. For JAK1: 4 nM wt human JAK1, catalytic site (ThermoFisher/USA), 1 μM HTRF KinEASE-TK Substrate-biotin, 2.5 μM ATP in 1× Kinase Buffer. For JAK2: 1 nM wt human JAK2, catalytic site (SignalChem/CAN), 1 μM HTRF KinEASE-TK Substrate-biotin, 100 μM ATP in 1× Kinase Buffer.
as §3

Where only a bound is given, the exact number is not on record here.

For orientation: IC50 means the concentration that inhibits the measured activity by half.

T1 sequence (P23458 875-1153 limits assumed): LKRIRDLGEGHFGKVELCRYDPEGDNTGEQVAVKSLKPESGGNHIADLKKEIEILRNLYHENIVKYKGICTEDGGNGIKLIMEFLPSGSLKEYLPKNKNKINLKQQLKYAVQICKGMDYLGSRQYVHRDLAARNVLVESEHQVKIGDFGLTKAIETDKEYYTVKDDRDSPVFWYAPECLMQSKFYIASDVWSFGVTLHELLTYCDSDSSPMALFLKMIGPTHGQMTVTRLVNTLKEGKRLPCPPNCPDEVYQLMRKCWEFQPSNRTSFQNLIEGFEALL

As for `Cn1cc(C(F)(F)F)nc1-c1ccc(Nc2nn(-c3c(Cl)cccc3Cl)nc2C(N)=O)nc1` [compound 144, 2-(2,6-dichlorophenyl)-5-((5-(1-methyl-4-(trifluoromethyl)-1H-imidazol-2-yl)pyridin-2-yl)amino)-2H-1,2,3-triazole-4-carboxamide], the IC50 in experiment [1] and in experiment [2] was 10 to 100 nM in each case.

In the case of `CN(C)[C@H]1CCN(C(=O)c2ccc(Nc3cn(-c4c(Cl)cccc4Cl)nc3C(N)=O)cn2)C1` [compound 354, (S)-1-(2,6-dichlorophenyl)-4-((6-(3-(dimethylamino)pyrrolidine-1-carbonyl)pyridin-3-yl)amino)-1H-pyrazole-3-carboxamide], the IC50 in experiment [1] fell in the range of 100 to 1000 nM; in experiment [2] it was 10 to 100 nM.

As for `NC(=O)c1nn(-c2c(Cl)cccc2Cl)cc1Nc1ccc(C(=O)N2CCSCC2)cc1` [compound 467, 1-(2,6-dichlorophenyl)-4-((4-(thiomorpholine-4-carbonyl)phenyl)amino)-1H-pyrazole-3-carboxamide], the half-inhibitory concentration (IC50) in experiment [1] and in experiment [2] was < 10 nM each time.

`NC(=O)c1nn(-c2c(F)cccc2Cl)cc1Nc1ccc(-n2cc3c(n2)CCOC3)cc1` [compound 209, 1-(2-chloro-6-fluorophenyl)-4-((4-(6,7-dihydropyrano[4,3-c]pyrazol-2(4H)-yl)phenyl)amino)-1H-pyrazole-3-carboxamide]: the figures for the concentration for half-maximal inhibition (IC50) in experiment [1] and in experiment [2] were 100 to 1000 nM and 10 to 100 nM, respectively.

On to `CN(C)CCc1nnnn1-c1ccc(Nc2cn(-c3c(Cl)cccc3Cl)nc2C(N)=O)cc1` [compound 273, 1-(2,6-dichlorophenyl)-4-((4-(5-(2-(dimethylamino)ethyl)-1H-tetrazol-1-yl)phenyl)amino)-1H-pyrazole-3-carboxamide], for which the 50% inhibitory concentration (IC50) in experiment [1] and in experiment [2] was 10 to 100 nM each time.

On to `NC(=O)c1nn(-c2c(Cl)cccc2Cl)cc1Nc1cnn(CC(=O)N2CCOCC2)c1` [compound 461, 1-(2,6-dichlorophenyl)-4-((1-(2-morpholino-2-oxoethyl)-1H-pyrazol-4-yl)amino)-1H-pyrazole-3-carboxamide], for which the IC50 in experiment [1] and in experiment [2] was 10 to 100 nM in each case.

On to `Cc1cnncc1-c1ccc(Nc2cn(-c3c(Cl)cccc3Cl)nc2C(N)=O)cc1` [compound 340, 1-(2,6-dichlorophenyl)-4-((4-(5-methylpyridazin-4-yl)phenyl)amino)-1H-pyrazole-3-carboxamide], for which the figures for the concentration for half-maximal inhibition (IC50) in experiment [1] and in experiment [2] were 100 to 1000 nM and 10 to 100 nM, respectively.

On to `Cc1cc(C)n(-c2ccc(Nc3cn(-c4c(Cl)cccc4Cl)nc3C(N)=O)cn2)n1` [compound 398, 1-(2,6-dichlorophenyl)-4-((6-(3,5-dimethyl-1H-pyrazol-1-yl)pyridin-3-yl)amino)-1H-pyrazole-3-carboxamide], for which the IC50 in experiment [1] and in experiment [2] was 100 to 1000 nM each time.

With `Cn1cncc1-c1ccc(Nc2cn(-c3c(Cl)cccc3Cl)nc2C(N)=O)cc1` [compound 204, 1-(2,6-dichlorophenyl)-4-((4-(1-methyl-1H-imidazol-5-yl)phenyl)amino)-1H-pyrazole-3-carboxamide], the results for the IC50 in experiment [1] and in experiment [2] were 100 to 1000 nM and 10 to 100 nM, respectively.

Turning to `CC(C)c1ncnn1-c1ccc(Nc2cn(-c3c(Cl)cccc3Cl)nc2C(N)=O)cc1` [compound 341, 1-(2,6-dichlorophenyl)-4-((4-(5-isopropyl-1H-1,2,4-triazol-1-yl)phenyl)amino)-1H-pyrazole-3-carboxamide], the concentration for half-maximal inhibition (IC50) in experiment [1] was in the range of 100 to 1000 nM; in experiment [2] it was 10 to 100 nM.

Turning to `CC(C)(C)OC(=O)N[C@@H]1CCN(C(=O)c2ccc(Nc3cn(-c4c(Cl)cccc4Cl)nc3C(N)=O)cc2)C1` [compound 324, (R)-tert-butyl_(1-(4-((3-carbamoyl-1-(2,6-dichlorophenyl)-1H-pyrazol-4-yl)amino)benzoyl)pyrrolidin-3-yl)carbamate], the 50% inhibitory concentration (IC50) in experiment [1] and in experiment [2] was 100 to 1000 nM each time.

In the case of `NC(=O)c1nn(-c2c(Cl)cccc2Cl)cc1Nc1ccc(-c2nnccc2C(F)(F)F)cc1` [compound 69, 1-(2,6-dichlorophenyl)-4-((4-(4-(trifluoromethyl)pyridazin-3-yl)phenyl)amino)-1H-pyrazole-3-carboxamide], the half-inhibitory concentration (IC50) in experiment [1] was in the range of 100 to 1000 nM; in experiment [2], 10 to 100 nM.

Take `CN1CCCN(C(=O)c2ccc(Nc3nn(-c4c(Cl)cccc4Cl)nc3C(N)=O)nc2)CC1` [compound 150, 2-(2,6-dichlorophenyl)-5-((5-(4-methyl-1,4-diazepane-1-carbonyl)pyridin-2-yl)amino)-2H-1,2,3-triazole-4-carboxamide]: the IC50 in experiment [1] and in experiment [2] was 10 to 100 nM each time.

On to `CN1CCN(C(=O)c2ccc(Nc3cn(-c4c(Cl)cccc4Cl)nc3C(N)=O)cn2)CC1` [compound 363, 1-(2,6-dichlorophenyl)-4-((6-(4-methylpiperazine-1-carbonyl)pyridin-3-yl)amino)-1H-pyrazole-3-carboxamide], for which the results for the half-maximal inhibitory concentration (IC50) in experiment [1] and in experiment [2] were 100 to 1000 nM and 10 to 100 nM, respectively.

Turning to `CC(C)n1cc(Nc2cn(-c3c(Cl)cccc3Cl)nc2C(N)=O)cn1` [compound 378, 1-(2,6-dichlorophenyl)-4-((1-isopropyl-1H-pyrazol-4-yl)amino)-1H-pyrazole-3-carboxamide], the values for the concentration for half-maximal inhibition (IC50) in experiment [1] and in experiment [2] were 100 to 1000 nM and 10 to 100 nM, respectively.

`NC(=O)c1nn(-c2c(Cl)cccc2Cl)cc1Nc1ccc(C(=O)N2CCC2)cc1` [compound 92, 4-((4-(azetidine-1-carbonyl)phenyl)amino)-1-(2,6-dichlorophenyl)-1H-pyrazole-3-carboxamide]: the IC50 in experiment [1] and in experiment [2] was 10 to 100 nM in each case.

Consider `CN1CCN(C(=O)c2cnc(Nc3cn(-c4c(Cl)cccc4Cl)nc3C(N)=O)cn2)CC1` [compound 402, 1-(2,6-dichlorophenyl)-4-((5-(4-methylpiperazine-1-carbonyl)pyrazin-2-yl)amino)-1H-pyrazole-3-carboxamide], for which the IC50 in experiment [1] and in experiment [2] was 100 to 1000 nM in each case.

For `Cn1ccc(Nc2cn(-c3c(Cl)cccc3Cl)nc2C(N)=O)cc1=O` [compound 381, 1-(2,6-dichlorophenyl)-4-((1-methyl-2-oxo-1,2-dihydropyridin-4-yl)amino)-1H-pyrazole-3-carboxamide], the concentration for half-maximal inhibition (IC50) in experiment [1] and in experiment [2] was 100 to 1000 nM each time.

As to `CN1CCC(N(C)C(=O)c2ccc(Nc3cn(-c4c(Cl)cc(F)cc4Cl)nc3C(N)=O)cc2)CC1` [compound 413, 1-(2,6-dichloro-4-fluorophenyl)-4-((4-(methyl(1-methylpiperidin-4-yl)carbamoyl)phenyl)amino)-1H-pyrazole-3-carboxamide], the half-maximal inhibitory concentration (IC50) in experiment [1] was 10 to 100 nM; in experiment [2], < 10 nM.

As to `COCCNC(=O)c1ccc(Nc2cn(-c3c(Cl)cccc3Cl)nc2C(N)=O)cc1` [compound 419, 1-(2,6-dichlorophenyl)-4-((4-((2-methoxyethyl)carbamoyl)phenyl)amino)-1H-pyrazole-3-carboxamide], the IC50 in experiment [1] and in experiment [2] was 10 to 100 nM in each case.

As to `NC(=O)c1nn(-c2c(Cl)cccc2Cl)cc1Nc1ccc(C(=O)NC2CCCNC2)cc1` (stereo not drawn) [compound 39, 1-(2,6-dichlorophenyl)-4-((4-(piperidin-3-ylcarbamoyl)phenyl)amino)-1H-pyrazole-3-carboxamide], the half-inhibitory concentration (IC50) in experiment [1] lay within 10 to 100 nM; in experiment [2] it was 100 to 1000 nM.

Turning to `Cc1cc(C)n(-c2ccc(Nc3cn(-c4c(Cl)cccc4Cl)nc3C(N)=O)cc2)n1` [compound 216, 1-(2,6-dichlorophenyl)-4-((4-(3,5-dimethyl-1H-pyrazol-1-yl)phenyl)amino)-1H-pyrazole-3-carboxamide], the 50% inhibitory concentration (IC50) in experiment [1] and in experiment [2] was 10 to 100 nM each time.

Regarding `N#Cc1cccc(Cl)c1-n1cc(Nc2ccc(C(=O)N3CC[C@@H](F)C3)cc2)c(C(N)=O)n1` [compound 459, 1-(2-Chloro-6-cyano-phenyl)-4-[4-((R)-3-fluoro-pyrrolidine-1-carbonyl)-phenylamino]-1H-pyrazole-3-carboxylic acid amide], the IC50 in experiment [1] is 10 to 100 nM; in experiment [2], < 10 nM.

In the case of `CCn1ncnc1-c1ccc(Nc2nn(-c3c(Cl)cccc3Cl)nc2C(N)=O)nc1` [compound 142, 2-(2,6-dichlorophenyl)-5-((5-(1-ethyl-1H-1,2,4-triazol-5-yl)pyridin-2-yl)amino)-2H-1,2,3-triazole-4-carboxamide], the IC50 in experiment [1] is 10 to 100 nM; in experiment [2], 100 to 1000 nM.

The values are drawn from US20230373985A1 (Origenis Gmbh, priority 2020, published 2023).
